Laboratory results as given in patent US9828338B2, “Carbamate derivatives of lactam based N-acylethanolamine acid amidase (NAAA) inhibitors” (The Regents of the University of California, priority 2013, dated 2017).
Where two headings read alike, the source gives them in different places.

How the values were obtained:
Format in all cases: biochemical
r-NAAA = molecular target: T1, r-NAAA (Rattus norvegicus, UniProt Q5KTC7); experiment: UPLC/MS r-NAAA assay
T1 construct: Lysosomal NAAA protein preparation was obtained by homogenizing male Sprague-Dawley rat lungs; tissue Charles River (animals); host or cells: male Sprague-Dawley rat lung, soluble lysosomal fraction
T1 sequence (Q5KTC7 34-362): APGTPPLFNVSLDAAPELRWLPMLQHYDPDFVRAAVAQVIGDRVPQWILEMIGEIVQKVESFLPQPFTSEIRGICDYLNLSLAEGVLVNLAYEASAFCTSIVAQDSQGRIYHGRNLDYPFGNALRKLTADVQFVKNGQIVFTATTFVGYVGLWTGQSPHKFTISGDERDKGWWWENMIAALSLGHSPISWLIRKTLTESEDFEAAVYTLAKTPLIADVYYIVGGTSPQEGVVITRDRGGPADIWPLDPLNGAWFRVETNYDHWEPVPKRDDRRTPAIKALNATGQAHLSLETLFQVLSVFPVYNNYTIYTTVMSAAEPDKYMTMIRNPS
Protocol: Lysosomal NAAA protein preparation was obtained by homogenizing male Sprague-Dawley rat lungs (Charles River) in 20 mM Tris-HCl buffer pH 7.4 containing 0.32M sucrose. […] Supernatants were then centrifuged at 12,000 xg for 30 min at 4° C. Pellets were then resuspended in PBS pH 7.4 and subjected to a freeze/thaw cycle at −80° C. The suspension was finally centrifuged at 105,000×g for 1 h at 4° C. The supernatant was then used in the enzymatic assay.
NAAA protein preparation was pre-incubated with various concentrations of test compounds or vehicle control in 100 mM NaH2PO4/Citrate buffer, 1% Triton-X, 3 mM DTT (pH 4.5) for 30 min at 37° C. Samples were then incubated with heptadecenoylethanolamide (50 μM, Avanti Polar Lipids) at 37° C. for 30 min. The reaction was terminated by addition of cold methanol containing heptadecanoic acid (NuCheck Prep) as internal standard. Samples were then analyzed by UPLC/MS (Acquity, Waters). […] The column temperature was 40° C. Electrospray ionization was in the negative mode, capillary voltage was 0.5 kV, cone voltage was […], desolvation temperature was 500° C. N2 was used as drying gas at a flow rate of 1000 L/hour and a temperature of 500° C. […] Calibration curves were generated using commercial heptadecenoic acid (NuCheck Prep) Inhibition of NAAA activity was calculated as reduction of heptadecenoic acid in the samples compared to vehicle controls. IC50 values were calculated by non-linear regression analysis of log [concentration]/inhibition curves using GraphPad Prism 5 (GraphPad Software Inc., CA—USA) applying a standard slope curve fitting.

human NAAA = molecular target: T2, human NAAA (Homo sapiens, UniProt Q02083); experiment: Fluorogenic h-NAAA assay
T2 construct: made in house; host or cells: HEK293 cells, stably transfected; soluble lysosomal fraction used as enzyme source
T2 sequence (Q02083 29-359): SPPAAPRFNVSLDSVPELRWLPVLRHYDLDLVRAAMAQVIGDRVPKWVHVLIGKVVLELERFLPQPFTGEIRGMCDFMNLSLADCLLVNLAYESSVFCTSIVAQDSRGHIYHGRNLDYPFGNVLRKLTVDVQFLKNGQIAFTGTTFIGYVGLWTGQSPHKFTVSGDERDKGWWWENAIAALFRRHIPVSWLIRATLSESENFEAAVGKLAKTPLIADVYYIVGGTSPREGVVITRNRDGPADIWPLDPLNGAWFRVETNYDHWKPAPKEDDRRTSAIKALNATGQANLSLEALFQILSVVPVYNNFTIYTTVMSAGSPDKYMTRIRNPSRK
Protocol: Hek293 cells stably transfected with the human NAAA coding sequence cloned from a human spleen cDNA library were used as enzyme source. Recombinant HEK-hNAAA pellets were resuspended in homogenizing buffer, and sonicated. Samples were centrifuged at 800×g for 15 min at 4° C. and the resultant supernatants were then ultracentrifuged at 12,000×g for 30 min at 4° C. The pellets were resuspended in PBS pH 7.4 on ice and subjected to a freeze/thaw cycle at −80° C. The suspension was finally centrifuged at 105,000×g for 1 h at 4° C. Protein concentration was measured and samples aliquoted and stored at −80° C. until use.
The assay was run in Optiplate 96-wells black plates, in a total reaction volume of 200 μL. NAAA protein preparation (4.0 μg) was pre-incubated for 10 min with various concentrations of test compounds or vehicle control (5% DMSO) in 100 mM citrate/phosphate buffer (pH 4.5) containing 3.0 mM DTT, 0.1% Triton X-100, 0.05% BSA, 150 mM NaCl. N-(4-methyl-2-oxo-chromen-7-yl)-hexadecanamide was used as a substrate (5.0 μM) and the reaction carried over for 30 min at 37° C. The samples were then read in a Perkin Elmer Envision plate reader using an excitation wavelength of 360 nm and emission 460 nm. IC50 values were calculated by non-linear regression analysis of log [concentration]/inhibition curves using GraphPad Prism 5 (GraphPad Software Inc., CA—USA) applying a standard slope curve fitting.

Rat AC (r-AC) = molecular target: T3, Rat AC (r-AC) (Rattus norvegicus, UniProt Q6P7S1); experiment: Rat AC (r-AC) assay; conditions: for IC50: read-out: r-AC UPLC/MS assay IC50
T3 construct: V5 (C); His (C); made in house; host or cells: HEK293 cells transfected with pEF6-rAC-V5/His, G418 selected; soluble lysosomal fraction
T3 sequence (Q6P7S1 21-394): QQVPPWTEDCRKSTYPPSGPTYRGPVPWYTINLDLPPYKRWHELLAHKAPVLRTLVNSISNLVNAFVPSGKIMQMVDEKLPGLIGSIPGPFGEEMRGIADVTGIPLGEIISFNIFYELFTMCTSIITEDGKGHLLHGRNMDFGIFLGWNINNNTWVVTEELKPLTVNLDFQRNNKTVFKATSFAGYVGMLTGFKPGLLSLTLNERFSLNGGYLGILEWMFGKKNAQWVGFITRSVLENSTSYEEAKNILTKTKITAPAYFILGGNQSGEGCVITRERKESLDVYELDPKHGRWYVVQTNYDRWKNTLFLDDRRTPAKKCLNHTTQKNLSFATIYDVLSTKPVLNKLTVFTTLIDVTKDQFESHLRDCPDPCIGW
Protocol: The selectivity of selected compounds versus Acid Ceramidase (AC) was determined.
Rat AC (r-AC) was cloned from a brain cDNA library using primers based on the sequence obtained from the National Center for Biotechnology Information (NCBI) database: 5′rAC (5′-[…]-3′) (SEQ ID NO:1) and 3′rAC (5′-[…]-3′) (SEQ ID NO:2). The PCR (High Fidelity PCR Master, Roche) product was subcloned into a pEF6-V5/His vector (Invitrogen) to construct a mammalian expression vector encoding V5/His-tagged rat AC. HEK293 cells were transfected with pEF6-rAC-V5/His using Super-Fect reagent (Qiagen) and screened with G418 (0.3 mg/mL). Cells were suspended in 20 mM Tris HCl (pH 7.5) containing 0.32M sucrose, sonicated and centrifuged at 800×g for 15 minutes at 4° C. The supernatants were centrifuged again at 12,000×g for 30 minutes at 4° C. The pellets were suspended in phosphate-buffered saline (PBS) and subjected to 2 freeze-thaw cycles at −80° C. The suspensions were centrifuged at 105,000×g for 1 hour at 4° C. The supernatants containing recombinant AC were kept at −80° C. until use. Protein concentration was measured using the bicinchoninic acid (BCA) assay (Pierce). Recombinant rat AC (50 μg) was preincubated with inhibitors (final DMSO concentration 1%) in assay buffer (100 mM sodium phosphate, 0.1% Nonidet P-40, 150 mM NaCl, 3 mM DTT, 100 mM sodium citrate, pH 4.5) for 30 minutes at 37° C. Reactions were started by the addition of 100 μM N-lauroyl ceramide (Nu-Chek Prep, Elysian, Minn.) and carried on for 30 minutes at 37° C. Reactions were stopped by addition of a mixture of chloroform/methanol (2:1, vol/vol) containing 1 nmol of heptadecanoic acid (HDA; NuChek Prep). The organic phases were collected, dried under N2, and analyzed by LC-MS in the negative-ion mode using […] (HDA) as internal standard (m/z=199 for lauric acid, m/z=269 for HDA). […]. The column temperature was 50° C. Electrospray ionization (ESI) was in the negative mode, capillary voltage as 4 kV, and fragmentor voltage was 100 V. N2 was used as drying gas at a flow rate of 13 L/min and a temperature of 350° C. Nebulizer pressure was set at 60 psi. We monitored [M-H]− in the selected-ion monitoring (SIM) mode using HDA as internal standard. Calibration curves were generated using commercial lauric acid (Nu-Chek Prep; m/z=199).

[1] = @ 10 μM, read-out: r-AC UPLC/MS assay % inhib.

O=C(N[C@H]1CNC1=O)OCc1ccc(C2CC3CCC2C3)cc1 (mixture of isomers) [Example 56, [4-(1R,2R,4S)- and (1S,2S,4R)-Norbornan-2-yl-phenyl)]-methyl-N-[(3S)-2-oxoazetidin-3-yl]-carbamate]
IC50 (r-NAAA): 16 nM | IC50 (human NAAA): 39 nM

CCCCC1CCC(OC(=O)N[C@H]2CNC2=O)CC1 (mixture of isomers) [Example 61, (1s,4R) and (1r,4S)-(4-Butylcyclohexyl)-N-[(3S)-2-oxoazetidin-3-yl]-carbamate]
IC50 (r-NAAA): 700 nM | IC50 (human NAAA): 323 nM

CCCCCCCOC(=O)N[C@H]1CNC1=O [Example 1, Heptyl-N-[(3S)-2-oxoazetidin-3-yl]-carbamate]
IC50 (r-NAAA): 700 nM | inhibition at 1 µM (Rat AC (r-AC); @ 1 μM, read-out: r-AC UPLC/MS assay % inhib.): 37%

CCCCC/C=C/CCOC(=O)N[C@H]1CNC1=O [Example 9, [(E)-Non-3-enyl]-N-[(3S)-2-oxoazetidin-3-yl]-carbamate]
IC50 (r-NAAA): 180 nM | IC50 (human NAAA): 78 nM

CCCCC/C=C\CCOC(=O)N[C@H]1CNC1=O [Example 10, [(Z)-Non-3-enyl]-N-[(3S)-2-oxoazetidin-3-yl]-carbamate]
IC50 (r-NAAA): 250 nM | IC50 (human NAAA): 76 nM

O=C(N[C@H]1CNC1=O)OCCCCc1ccccc1 [Example 13, 4-Phenylbutyl-N-[(3S)-2-oxoazetidin-3-yl]-carbamate]
IC50 (r-NAAA): 2430 nM | IC50 (human NAAA): 930 nM

O=C(N[C@H]1CNC1=O)OCc1ccc(-c2ccccc2)cc1 [Example 17, (4-Phenylphenyl)-methyl-N-[(3S)-2-oxoazetidin-3-yl]-carbamate]
IC50 (r-NAAA): 310 nM | IC50 (Rat AC (r-AC)): 20100 nM

O=C(N[C@H]1CNC1=O)OCCCC1CCCC1 [Example 21, 3-Cyclopentylpropyl-N-[(3S)-2-oxoazetidin-3-yl]-carbamate]
IC50 (r-NAAA): 220 nM | IC50 (human NAAA): 97 nM

COc1ccc(CCCCOC(=O)N[C@H]2CNC2=O)cc1 [Example 22, 4-(4-Methoxyphenyl)-butyl-N-[(3S)-2-oxoazetidin-3-yl]-carbamate]
IC50 (r-NAAA): 790 nM | IC50 (human NAAA): 573 nM

CCCCCCCCCOC(=O)N[C@H]1CNC1=O [Example 25, Nonyl-N-[(3S)-2-oxoazetidin-3-yl]-carbamate]
IC50 (r-NAAA): 40 nM | IC50 (human NAAA): 17 nM

CCCCCCCCCCOC(=O)N[C@H]1CNC1=O [Example 30, Decyl-N-[(3S)-2-oxoazetidin-3-yl]-carbamate]
IC50 (r-NAAA): 55 nM | IC50 (human NAAA): 25 nM

O=C(N[C@H]1CNC1=O)OCc1ccc(C2CCCCC2)cc1 [Example 31, (4-Cyclohexylphenyl)-methyl-N-[(3S)-2-oxoazetidin-3-yl]-carbamate]
IC50 (r-NAAA): 28 nM | IC50 (Rat AC (r-AC)): 21700 nM

O=C(N[C@H]1CNC1=O)OCc1ccc(Cc2ccccc2)cc1 [Example 34, (4-Benzylphenyl)-methyl-N-[(3S)-2-oxoazetidin-3-yl]-carbamate]
IC50 (r-NAAA): 300 nM | IC50 (human NAAA): 230 nM

O=C(N[C@H]1CNC1=O)OCc1ccc(C(=O)c2ccccc2)cc1 [Example 52, (4-Benzoylphenyl)-methyl-N-[(3S)-2-oxoazetidin-3-yl]-carbamate]
IC50 (r-NAAA): 420 nM | IC50 (human NAAA): 639 nM

O=C(N[C@H]1CNC1=O)OCc1ccc(C23CC4CC(CC(C4)C2)C3)cc1 [Example 58, [4-(1-Adamantyl)-phenyl]-methyl-N-[(3S)-2-oxoazetidin-3-yl]-carbamate]
IC50 (r-NAAA): 2700 nM | IC50 (human NAAA): 2100 nM

CCCCOc1ccc(COC(=O)N[C@H]2CNC2=O)cc1 [Example 63, (4-Butoxyphenyl)-methyl-N-[(3S)-2-oxoazetidin-3-yl]-carbamate]
IC50 (r-NAAA): 240 nM | IC50 (human NAAA): 104 nM

C[C@@H]1NC(=O)[C@H]1NC(=O)OCCCCC1CCCCC1 [Example 72, 4-Cyclohexylbutyl-N-[(2S,3S)-2-methyl-4-oxo-azetidin-3-yl]-carbamate]
IC50 (r-NAAA): 50 nM | inhibition at 10 µM (Rat AC (r-AC); [1]): 20%

C[C@@H]1NC(=O)[C@H]1NC(=O)OCc1ccc(-c2ccccc2)cc1 [Example 73, (4-Phenylphenyl)-methyl-N-[(2S,3S)-2-methyl-4-oxo-azetidin-3-yl]-carbamate]
IC50 (r-NAAA): 900 nM | inhibition at 10 µM (Rat AC (r-AC); read-out: r-AC UPLC/MS assay % inhib.): 20%

C[C@H]1NC(=O)[C@H]1NC(=O)OCCCCC1CCCCC1 [Example 76, 4-Cyclohexylbutyl-N-[(2R,3S)-2-methyl-4-oxo-azetidin-3-yl]-carbamate]
IC50 (r-NAAA): 87000 nM | inhibition at 10 µM (Rat AC (r-AC); [1]): 5%
